From PMC11996864, “A small-molecule inhibitor of BCL10-MALT1 interaction abrogates progression of diffuse large B cell lymphoma” (The Journal of Clinical Investigation, 2025)
“And” between values parts separate entries of the source, which are not always exact repeats. Identical values can stand only once. “Also recorded” adds a separate entry of the source. Like-named read-outs stand apart in the source and are kept apart here. Blank lines part the entries; values can stand above or below the compound they belong to.

Legend:
[1] = tested on: IL-2 secretion from primary mouse splenocytes; assay: Secreted IL-2 ELISA, stimulated primary splenocytes; format: cell-based; conditions: Suppl Fig. 4B; for IL-2 protein level (% of control) / activity at 5 µM: 5 uM; for activity at 1 µM / activity at 5 µM: Mus musculus, Splenocyte, read-out: IL-2 protein level (% of control)
[2] = tested on: TMD8 cells; assay: Apoptosis, annexin V/SYTOX Blue flow cytometry; format: cell-based, human
Protocol: (§1) Cell proliferation, viability, and apoptosis assays. […]
The percentages of cells in early and late apoptosis were combined for
quantification. For CellTrace Violet, CellTiter-glo, and Annexin V apoptosis assays, cell were
cultured in media with 50% of the usual serum. […]

[3] = tested on: OCI-Ly7 cells; assay: Apoptosis, annexin staining flow cytometry; format: cell-based, human
[4] = tested on: OCI-Ly1 cells; assay: CellTiter-Glo ATP viability; format: cell-based, human
Protocol: as §1
(§2) Fluorescent Intensity (MFI) was analyzed by FlowJo (version 10.8.0, BD). CellTiter-glo luminescence assay (Promega, Cat# G7570) was used to quantify ATP levels as a surrogate marker of metabolic viability in DLBCL cells treated with compounds for 6-8 days. Annexin V Alexa 488 (ThermoFisher Scientific, Cat# A13201) and SYTOX Blue Dead Cell (ThermoFisher Scientific, Cat# S34857) stains were used to detect apoptosis in DLBCL cells after treatment with 1 µM compounds for 8 days in TMD8 and OCI-Ly1 and for 5 days in OCI-Ly3 cells, then analyzed with flow cytometry. The percentages of cells in early and late apoptosis were combined for quantification. For CellTrace Violet, CellTiter-glo, and Annexin V apoptosis assays, cell were cultured in media with 50% of the usual serum. […]

[5] = tested on: TMD8 cells; assay: CellTiter-Glo ATP viability; format: cell-based, human
Protocol: as §1, §2

[6] = tested on: OCI-Ly1 cells; assay: CellTrace Violet dilution/cell division assay; format: cell-based, human; conditions: OCI-Ly1, 1 μM
Protocol: as §1
(§3) CellTrace Violet reagent (ThermoFisher, Cat#
(§4) C34571) was used as a cell division tracking dye for OCI-Ly1, OCI-Ly3, and TMD8 cells treated with 1 μM of compound M1i-124 or DMSO control, where the intensity of the staining decreases with each round of cell division. At days 0 and 6 after staining of DMSO- and compound-treated cells, CellTrace Violet fluorescence was measured on a BD LSR II instrument and Mean Fluorescent Intensity (MFI) was analyzed by FlowJo (version 10.8.0, BD). […]
(§5) For CellTrace Violet, CellTiter-glo, and Annexin V apoptosis assays, cell were cultured in media with 50% of the usual serum. […]

[7] = tested on: OCI-Ly3 cells; assay: CellTrace Violet dilution/cell division assay; format: cell-based, human; conditions: OCI-Ly3, 1 μM
Protocol: as §1, §3, §4, §5

[8] = tested on: TMD8 cells; assay: CellTrace Violet dilution/cell division assay; format: cell-based, human; conditions: TMD8, 1 μM
Protocol: as §1, §3, §4, §5

[9] = tested on: TMD8 cells; assay: cells; parameters: species or system TMD8 or OCI-Ly3; Inhibition of spontaneous IL-10 secretion from ABC-DLBCL cells, human IL-10 ELISA of supernatants; conditions: Homo sapiens, TMD8, 20 h; IL-10 secretion; read-out: IC50 (µM) IL-10 inhibition
Protocol: Cytokine ELISAs. Cytokines in cell culture supernatants were measured 20-24h after treatment with 0, 0.01, 0.03, 0.1, 0.3, 1, or 3 µM of compounds using the following ELISA kits according to the manufacturer’s instructions: Human IL-2 ELISA (BioLegend Cat# 431804), Human IL-6 ELISA (BioLegend Cat# 430504), and Human IL-10 ELISA (BioLegend Cat# 430604). TMD8 and OCI-Ly3 cells were treated with specific doses of compounds in serum-free media for 20 hours. Jurkat T cells were pretreated with specific doses of compounds for 8 hours in serum-free media, then stimulated with PMA/ionomycin for 16 hours prior to the collection of supernatants. Mouse splenocytes were isolated from spleens of C57/BL6 mice by passing spleens through a 70 micron filter followed by red blood cell lysis using ACK lysing buffer (Quality Biologics, Cat# 118-156-101). […] Supernatant was collected at 24 hours and mouse IL-2 levels were analyzed via ELISA (R&D Systems, Cat# DY402-05). IL-6 and IL-10 are NF-κB–induced cytokines that promote the proliferation and survival of malignant B cells through both autocrine and paracrine mechanisms ([44]), and are negative prognostic factors in ABC-DLBCL ([45], [46]). ABC-DLBCL cell lines spontaneously secrete substantial levels of IL-6 and IL-10, whereas GCB-DLBCL cell lines express only a negligible amount of these cytokines ([24]). […] The IC50 for inhibition of cytokine secretion by each compound in each cell line is reported in Supplemental Table 1.  Figure 4 M1i-124 and M1i-124d1 inhibit MALT1 protease and scaffolding functions, and MALT1-dependent cytokine secretion, in ABC-DLBCL cells. (A and B) Effect of 1 μM compound pretreatment on constitutive RelB cleavage (A) and IκB phosphorylation (B) within TMD8 cells. Representative Western blots are shown along with quantification (mean ± SEM; n = 2). (C) IL6 and IL10 mRNA levels in TMD8 cells treated with 1 μM M1i-124 or M1i-124d1 (mean ± SEM; n = 6). […] Statistical analyses were performed using 1-way ANOVA and Dunnett’s multiple-comparison test. **P < 0.01, ***P < 0.001, ****P < 0.0001.

SMILES: CN1CCCC(CN2c3ccccc3Sc3ccccc32)C1 (stereo not drawn) [Mepazine, mepazine, reference compound]
IL-2 protein level (% of control) ([1]; CD3/CD28 treated): 22.2086 % of control and 29.3738 % of control
activity at 1 µM ([1]; CD3/CD28 treated): 82.7%
activity at 5 µM ([1]; CD3/CD28 treated): 15.6%
activity at 1 µM ([1]; PMA/Iono treated): 83.3%
activity at 5 µM ([1]; PMA/Iono treated): 22.3%
IL-2 protein level (% of control) ([1]; PMA/Iono treated): 17.095 % of control and 28.7342 % of control

SMILES: O=S(=O)(NCc1ccc2c(c1)OCO2)c1ccc(Cc2ccc(S(=O)(=O)NCc3ccc4c(c3)OCO4)cc2)cc1 [M1i-124]
% Apoptotic cells ([2]; TMD8, 1 μM, 6 days): 84.2% and 72.1% and 76.6% and 77.4% and 72.4% and 73.5%
Annexin (% positivity) ([2]; TMD8, individual replicates): 78.2% and 93.8% and 81.35%
apoptosis of TMD8 cells ([2]; result in words): induced significant apoptosis; also recorded: selectively induced apoptosis
Annexin (% positivity) ([3]; Ly7, individual replicates): 27% and 16.65% and 14.5%
apoptosis of OCI-Ly7 cells ([3]; result in words): either no or minimal apoptotic response
CellTiter-Glo viability (% of control) ([4]; OCI-Ly1, M1i-124 (µM) 0.02): 107.27% and 98.9873% and 92.7867%
CellTiter-Glo viability (% of control) ([4]; OCI-Ly1, M1i-124 (µM) 0.05): 97.4522% and 115.002% and 102.297%
CellTiter-Glo viability (% of control) ([4]; OCI-Ly1, M1i-124 (µM) 0.1): 110.647% and 95.1607% and 118.153%
CellTiter-Glo viability (% of control) ([4]; OCI-Ly1, M1i-124 (µM) 0.2): 107.42% and 81.8681% and 81.0306%
CellTiter-Glo viability (% of control) ([4]; OCI-Ly1, M1i-124 (µM) 0.5): 117.286% and 98.6082% and 99.6544%
CellTiter-Glo viability (% of control) ([4]; OCI-Ly1, M1i-124 (µM) 1): 125.229% and 113.171% and 94.1756%
CellTiter-Glo viability (% of control) ([4]; OCI-Ly1, M1i-124 (µM) 2): 125.761% and 123.625% and 96.808%
CellTiter-Glo viability (% of control) ([4]; OCI-Ly1, M1i-124 (µM) 5): 145.729% and 138.657% and 113.755%
IC50 ([5]; Homo sapiens, TMD8 cells, read-out: 50% cytotoxic concentration): ~200 nM
viability of TMD8 cells ([5]; result in words): loss of cell viability; also recorded: dose-dependent decrease in viability
activity at 1 µM ([6]; Homo sapiens, OCI-Ly1, 144 h, day 6, read-out: CellTrace Violet dilution (Percent of Control)): 73.1%
cell division ([6]; 6 days, result in words): minimal effect
CellTrace Violet dilution (Percent of Control) ([6]; day 6, 1 µM): 82.43% of Control and 74.14% of Control and 90.83% of Control
cell division ([7]; 6 days, result in words): substantially reduced
CellTrace Violet dilution (Percent of Control) ([7]; day 6, 1 µM): 39.99% of Control and 46.66% of Control and 31.33% of Control and 60.69% of Control
activity at 1 µM ([8]; Homo sapiens, TMD8, 144 h, day 6, read-out: CellTrace Violet dilution (Percent of Control)): 42.2%
cell division ([8]; 6 days, result in words): substantially reduced
CellTrace Violet dilution (Percent of Control) ([8]; day 6, 1 µM): 48.11% of Control and 53.597% of Control and 42.644% of Control

IC50 [9]: 0.2 µM
SMILES: COc1ccc(CNS(=O)(=O)c2ccc(Cc3ccc(S(=O)(=O)NCc4ccc(OC)cc4)cc3)cc2)cc1 [M1i-124d1]
